Assay results taken from patent US10278911B2, “Compositions containing cyclic peptides and methods of use” (Merck Patent GmbH, priority 2008, dated 2019).
Non-standard residues stand in square brackets, D forms with d. Residues, ends and D or L forms follow the SMILES beside them.

What was measured:
av-beta3/5 = assay: Integrin ligand activity (in vitro studies); format: binding
av-beta6 = av-beta6 (Homo sapiens, UniProt P06756+P18564); assay: Integrin ligand activity (in vitro studies); format: binding
[1] = test system: full thickness skin model (human primary epidermal keratinocytes and human fibroblasts); assay: cDNA-microarray gene expression profile of treated human skin model (PIQOR-skin); format: cell-based; conditions: 0.5 μM, 4 days incubation
Description: The following is a study to determine the gene expression profiles of Cyclo-(Arg-Gly-Asp-DPhe-Acha) (=CPPC 1) treated human skin.
For the analysis of deregulated gene expression induced by substance CPPC 1, treated and control samples from a human skin model are analyzed as follows: • A full thickness skin model (human primary epidermal keratinocytes and human fibroblasts), such as the Phenion® FTSM, commercially available from Phenion GmbH & Co. KG, Düsseldorf, Germany, is used. Cells are not pooled or genetically modified. • Gene expression analysis is carried out with PIQOR™-skin cDNA microarrays, which contains 1312 genes that are involved in target pathways related to stress, inflammation, pigmentation and depigmentation, moisturization, anti-ageing and hair follicle development in humans. For instance, cell cycle, apoptosis, DNA repair, oxidative metabolism, angiogenesis, cell adhesion cell-matrix interactions and signaling. Genes are represented with four replicate spots. • Treatment with CPPC 1 is performed in 0.5 μM concentration (4 days incubation, n=3 per condition). […] Profiling of Gene Expression—Input Genes
A ratio (log 2) value of zero indicates no regulation, whereas positive (log 2) values indicate an upregulation and negative (log 2) values a downregulation of the relevant gene.
The deregulated genes for skin samples treated with 0.5 μM concentration is used for further analysis.

[2] = molecular target: T1, vitronectin receptor aVβ3 (Homo sapiens, UniProt P05106+P06756); assay: Pentapeptides as inhibitors of αVβ3 (immobilized), solid-phase inhibition assay; conditions: αVβ3 from human placental extracts, binding of vitronectin, read-out: IC50 VN: αvβ3
T1 construct: Integrin αVβ3 is purified from human placental extracts; from tissue; host or cells: human placenta (extracts)
Description: Preparation and Characterization of Integrin αVβ3: Integrin αVβ3 is purified from human placental extracts by affinity chromatography on GRGDSPK peptide. Extraction and chromatography follows previously published protocols except that Triton X-100 is replaced by 25 mM octyl-P-D-glucopyranoside. Bound integrin is eluted with 10 mM EDTA into 1.5-ml vials containing 25 pl of 1 M MgCl, and concentrated in Centricon 100 microconcentrators. They are stored at 4° C. in neutral buffer containing 25 mM octyl glucoside, and 0.05% sodium azide. Protein concentrations were determined by a micro BCA assay (Pierce).
Solid-phase inhibition assays are established for the inhibition of binding of the vitronectin receptor aVβ3 to their corresponding protein ligands by the cyclic peptides. Inhibitory activities (IC50) of cyclic RGD containing peptides for the binding of vitronectin (VN). Integrins are used as immobilized ligands.

human placental αVβ3 = molecular target: T2, human placental αVβ3 (Homo sapiens, UniProt P05106+P06756); assay: Receptor inhibition assay, binding of biotinylated ligands to human placental αVβ3; conditions: purified human placental αVβ3, biotinylated vitronectin, 3 h at 30° C.; read-out: IC50 VN: αvβ3
T2 construct: Purified human integrin αVβ3 from term placenta; from tissue; host or cells: human term placenta
Description: After 3 h at 30° C. bound ligand was measures by anti-biotin—alkaline phosphatase detection.

integrin αVβ3 = integrin αVβ3 (Homo sapiens, UniProt P05106+P06756); assay: Isolated integrin-ligand binding assay (ligand inhibition, immobilized integrin, biotinylated vitronectin); conditions: immobilized recombinant human integrin, biotinylated human serum vitronectin as ligand
Description: i) Isolated Integrin-Ligand Binding Assay The production of recombinant human integrin is known in the literature. […] In brief, 96-well ELISA plates are coated by adsorption from neutral aqueous buffers of 1 microg/ml integrin. After blocking residual sites on the plate with BSA, biotinylated ligands (1 microg/ml) are added in the presence or absence of serial dilutions of inhibitor, and after incubation and washing, bound biotin is detected with peroxidase-coupled anti-biotin antibody and TMB substrate.

av-beta6, sequence (P06756 31-1048): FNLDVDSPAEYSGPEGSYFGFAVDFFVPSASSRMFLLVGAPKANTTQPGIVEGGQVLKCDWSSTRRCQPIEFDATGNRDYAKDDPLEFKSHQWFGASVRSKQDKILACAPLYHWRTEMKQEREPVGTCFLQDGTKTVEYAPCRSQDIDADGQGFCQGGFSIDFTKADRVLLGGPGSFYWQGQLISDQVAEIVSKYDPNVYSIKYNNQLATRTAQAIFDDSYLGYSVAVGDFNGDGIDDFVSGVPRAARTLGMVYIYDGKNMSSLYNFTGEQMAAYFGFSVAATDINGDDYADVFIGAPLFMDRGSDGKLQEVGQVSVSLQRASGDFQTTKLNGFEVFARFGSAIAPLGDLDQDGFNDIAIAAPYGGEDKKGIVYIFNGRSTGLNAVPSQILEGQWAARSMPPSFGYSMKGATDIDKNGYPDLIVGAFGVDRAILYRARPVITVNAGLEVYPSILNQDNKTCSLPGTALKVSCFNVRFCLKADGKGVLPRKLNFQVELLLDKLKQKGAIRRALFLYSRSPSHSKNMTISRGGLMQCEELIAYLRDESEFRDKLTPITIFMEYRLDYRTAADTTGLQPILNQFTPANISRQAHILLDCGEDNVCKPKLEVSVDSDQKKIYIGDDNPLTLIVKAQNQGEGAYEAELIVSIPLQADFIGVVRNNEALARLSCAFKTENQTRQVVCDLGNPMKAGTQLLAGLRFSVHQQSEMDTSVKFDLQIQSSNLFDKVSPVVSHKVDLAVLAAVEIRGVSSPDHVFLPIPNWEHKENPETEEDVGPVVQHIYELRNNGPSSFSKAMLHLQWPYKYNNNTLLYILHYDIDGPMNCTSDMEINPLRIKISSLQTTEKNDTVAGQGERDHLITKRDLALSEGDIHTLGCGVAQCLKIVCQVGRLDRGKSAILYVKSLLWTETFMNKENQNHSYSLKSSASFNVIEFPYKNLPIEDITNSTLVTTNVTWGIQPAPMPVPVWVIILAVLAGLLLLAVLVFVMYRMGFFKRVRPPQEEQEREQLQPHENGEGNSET
av-beta6, sequence (P18564 22-788): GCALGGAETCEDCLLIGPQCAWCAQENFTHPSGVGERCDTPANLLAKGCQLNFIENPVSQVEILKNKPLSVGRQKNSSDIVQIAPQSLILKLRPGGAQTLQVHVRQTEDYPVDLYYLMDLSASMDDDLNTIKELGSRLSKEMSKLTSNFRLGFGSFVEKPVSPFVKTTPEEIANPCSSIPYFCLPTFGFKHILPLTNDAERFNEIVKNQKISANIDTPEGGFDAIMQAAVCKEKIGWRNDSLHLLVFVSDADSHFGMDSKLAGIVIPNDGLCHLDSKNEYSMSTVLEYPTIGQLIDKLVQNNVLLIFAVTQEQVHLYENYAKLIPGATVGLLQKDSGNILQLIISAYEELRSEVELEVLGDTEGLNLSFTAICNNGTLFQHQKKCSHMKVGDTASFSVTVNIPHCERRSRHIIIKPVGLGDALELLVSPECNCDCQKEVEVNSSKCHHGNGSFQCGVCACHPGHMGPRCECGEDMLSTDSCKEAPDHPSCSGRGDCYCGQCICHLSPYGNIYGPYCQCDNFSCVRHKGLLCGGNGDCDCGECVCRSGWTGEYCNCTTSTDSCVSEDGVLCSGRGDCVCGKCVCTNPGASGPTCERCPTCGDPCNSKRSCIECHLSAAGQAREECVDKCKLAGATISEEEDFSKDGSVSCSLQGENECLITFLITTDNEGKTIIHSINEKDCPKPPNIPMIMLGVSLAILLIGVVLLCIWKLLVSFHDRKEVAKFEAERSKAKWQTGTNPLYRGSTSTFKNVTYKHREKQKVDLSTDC
integrin αVβ3, sequence (P06756 31-1048): as the sequence (P06756 31-1048) above
integrin αVβ3, sequence (P05106 27-788): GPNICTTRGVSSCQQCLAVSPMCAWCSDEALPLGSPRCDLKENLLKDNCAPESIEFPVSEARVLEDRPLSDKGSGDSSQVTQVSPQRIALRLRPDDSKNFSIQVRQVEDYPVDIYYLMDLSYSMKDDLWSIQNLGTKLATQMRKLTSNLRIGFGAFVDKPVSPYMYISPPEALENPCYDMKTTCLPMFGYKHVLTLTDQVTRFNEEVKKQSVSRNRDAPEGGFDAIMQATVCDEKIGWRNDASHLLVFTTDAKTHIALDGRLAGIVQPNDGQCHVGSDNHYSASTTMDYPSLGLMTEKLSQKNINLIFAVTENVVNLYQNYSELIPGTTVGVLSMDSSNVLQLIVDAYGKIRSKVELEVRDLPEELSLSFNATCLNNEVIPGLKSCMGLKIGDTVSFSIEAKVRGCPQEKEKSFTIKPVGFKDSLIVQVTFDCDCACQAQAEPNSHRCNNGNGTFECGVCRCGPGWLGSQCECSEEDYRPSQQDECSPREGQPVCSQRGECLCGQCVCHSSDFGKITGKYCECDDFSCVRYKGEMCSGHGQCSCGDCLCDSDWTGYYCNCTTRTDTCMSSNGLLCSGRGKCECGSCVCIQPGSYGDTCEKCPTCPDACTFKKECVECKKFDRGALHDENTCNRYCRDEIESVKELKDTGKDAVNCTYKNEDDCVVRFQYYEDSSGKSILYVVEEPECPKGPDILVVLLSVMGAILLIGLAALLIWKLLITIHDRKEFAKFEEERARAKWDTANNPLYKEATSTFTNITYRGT
T1 sequence (P06756 31-889 limits assumed): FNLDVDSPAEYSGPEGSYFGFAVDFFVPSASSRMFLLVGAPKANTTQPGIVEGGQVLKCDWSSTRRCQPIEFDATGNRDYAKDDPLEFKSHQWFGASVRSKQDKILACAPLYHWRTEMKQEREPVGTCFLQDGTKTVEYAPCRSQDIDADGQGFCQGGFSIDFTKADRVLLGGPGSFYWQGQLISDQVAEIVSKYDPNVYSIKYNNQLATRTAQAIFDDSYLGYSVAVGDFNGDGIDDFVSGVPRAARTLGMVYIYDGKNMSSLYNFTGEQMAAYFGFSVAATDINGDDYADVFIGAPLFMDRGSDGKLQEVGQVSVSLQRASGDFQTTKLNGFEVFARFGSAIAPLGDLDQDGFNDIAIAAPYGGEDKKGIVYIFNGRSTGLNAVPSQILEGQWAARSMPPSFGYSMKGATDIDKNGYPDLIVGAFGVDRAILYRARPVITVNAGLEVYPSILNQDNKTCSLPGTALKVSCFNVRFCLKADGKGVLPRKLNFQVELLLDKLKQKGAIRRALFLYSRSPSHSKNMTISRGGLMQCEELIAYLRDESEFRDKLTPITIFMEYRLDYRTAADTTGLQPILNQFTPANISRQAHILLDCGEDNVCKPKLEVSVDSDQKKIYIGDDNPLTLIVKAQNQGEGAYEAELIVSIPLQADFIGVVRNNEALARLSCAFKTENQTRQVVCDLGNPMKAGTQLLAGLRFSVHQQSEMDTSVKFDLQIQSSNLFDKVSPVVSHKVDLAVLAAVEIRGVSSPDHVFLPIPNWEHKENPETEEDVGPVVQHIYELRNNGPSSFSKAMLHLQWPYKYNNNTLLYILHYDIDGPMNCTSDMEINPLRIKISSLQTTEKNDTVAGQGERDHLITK
T1 sequence (P06756 891-1048 partner limits assumed): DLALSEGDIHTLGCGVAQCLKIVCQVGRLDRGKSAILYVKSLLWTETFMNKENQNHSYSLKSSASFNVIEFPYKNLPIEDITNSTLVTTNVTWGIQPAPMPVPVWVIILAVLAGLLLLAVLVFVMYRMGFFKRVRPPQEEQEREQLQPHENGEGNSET
T1 sequence (P05106 27-788): as the sequence (P05106 27-788) above
T2 sequence (P06756 31-889 limits assumed): as the sequence (P06756 31-889 limits assumed) above
T2 sequence (P06756 891-1048 partner limits assumed): as the sequence (P06756 891-1048 partner limits assumed) above
T2 sequence (P05106 27-788): as the sequence (P05106 27-788) above

N=C(N)NCCC[C@@H]1NC(=O)C2(CCCCC2)NC(=O)[C@@H](Cc2ccccc2)NC(=O)[C@H](CC(=O)O)NC(=O)CNC1=O [CPPC 1, Cyclo-(Arg-Gly-Asp-DPhe-Acha)]
activity as av-beta3/5 ligand (av-beta3/5): highly active
activity as av-beta6 ligand (av-beta6): low active
ADAM9 gene expression, Compound vs. Control, ratio Log(2) value [1]: 0.4854
ASC gene expression, Compound vs. Control, ratio Log(2) value [1]: −0.304
BCL2L1 gene expression, Compound vs. Control, ratio Log(2) value [1]: 0.263
BMP-3 gene expression in treated skin [1]: downregulated
C19orf10 gene expression, Compound vs. Control, ratio Log(2) value [1]: 0.263
CASP8 gene expression, Compound vs. Control, ratio Log(2) value [1]: −0.304
CCNB2 gene expression, Compound vs. Control, ratio Log(2) value [1]: 0.4647
CD81 gene expression, Compound vs. Control, ratio Log(2) value [1]: 0.251
CDK2 gene expression, Compound vs. Control, ratio Log(2) value [1]: 0.2265
CDK4 gene expression, Compound vs. Control, ratio Log(2) value [1]: 0.1375
CLU gene expression, Compound vs. Control, ratio Log(2) value [1]: 0.4436
DDR2 gene expression, Compound vs. Control, ratio Log(2) value [1]: 0.2869
E2F3 gene expression, Compound vs. Control, ratio Log(2) value [1]: −0.3959
EGF gene expression, Compound vs. Control, ratio Log(2) value [1]: −0.2345
ELA2 gene expression, Compound vs. Control, ratio Log(2) value [1]: −0.2345
FBLN1_4 gene expression, Compound vs. Control, ratio Log(2) value [1]: 0.516
FBLN2 gene expression, Compound vs. Control, ratio Log(2) value [1]: 0.3785
FGF1 gene expression, Compound vs. Control, ratio Log(2) value [1]: 0.5059
FLOT2 gene expression, Compound vs. Control, ratio Log(2) value [1]: 0.4542
GDF10 gene expression, Compound vs. Control, ratio Log(2) value [1]: −0.2863
IGFBP4 gene expression, Compound vs. Control, ratio Log(2) value [1]: 0.4854
IL2 gene expression, Compound vs. Control, ratio Log(2) value [1]: −0.5778
IL6 gene expression, Compound vs. Control, ratio Log(2) value [1]: 0.4854
IL7 gene expression, Compound vs. Control, ratio Log(2) value [1]: −0.3585
IL8 gene expression, Compound vs. Control, ratio Log(2) value [1]: 0.3219
IL17A gene expression, Compound vs. Control, ratio Log(2) value [1]: −0.6666
JUN gene expression, Compound vs. Control, ratio Log(2) value [1]: −0.5778
KRT2A gene expression, Compound vs. Control, ratio Log(2) value [1]: 0.4005
KRT9 gene expression, Compound vs. Control, ratio Log(2) value [1]: −0.2688
KRT19 gene expression, Compound vs. Control, ratio Log(2) value [1]: 0.3334
LCN2 gene expression, Compound vs. Control, ratio Log(2) value [1]: −0.5564
MCL1 gene expression, Compound vs. Control, ratio Log(2) value [1]: 0.3674
PGF gene expression, Compound vs. Control, ratio Log(2) value [1]: 0.2141
PTGS2 gene expression, Compound vs. Control, ratio Log(2) value [1]: 0.4222
QSOX1 gene expression, Compound vs. Control, ratio Log(2) value [1]: 0.433
S100A12 gene expression, Compound vs. Control, ratio Log(2) value [1]: −0.2515
SDCBP gene expression, Compound vs. Control, ratio Log(2) value [1]: 0.3896
SEPRASE gene expression, Compound vs. Control, ratio Log(2) value [1]: 0.546
SOCS1 gene expression, Compound vs. Control, ratio Log(2) value [1]: 0.3334
SPARC gene expression, Compound vs. Control, ratio Log(2) value [1]: 0.3674
SPRR1A gene expression, Compound vs. Control, ratio Log(2) value [1]: −0.304
STAT1 gene expression, Compound vs. Control, ratio Log(2) value [1]: 0.3103
STAT5B gene expression, Compound vs. Control, ratio Log(2) value [1]: −0.1844
TNF gene expression, Compound vs. Control, ratio Log(2) value [1]: −0.304
TNFC gene expression, Compound vs. Control, ratio Log(2) value [1]: −0.3401
TNFRSF1B gene expression, Compound vs. Control, ratio Log(2) value [1]: −0.3585
TNFRSF25 gene expression, Compound vs. Control, ratio Log(2) value [1]: −0.2688
TNFSF10 gene expression, Compound vs. Control, ratio Log(2) value [1]: −0.2688
TNFSF13B gene expression, Compound vs. Control, ratio Log(2) value [1]: −0.2688
TUBB gene expression, Compound vs. Control, ratio Log(2) value [1]: 0.6599
TXLN gene expression, Compound vs. Control, ratio Log(2) value [1]: −0.8365
bone morphogenic proteins (BMPs) gene expression in treated skin [1]: downregulated
fibulins gene expression in treated skin [1]: upregulated
number of deregulated genes selected (of 1312 genes on the microarray) ([1]; p<0.05, at least […] deregulation): 345

CC(C)[C@@H]1NC(=O)[C@H](Cc2ccccc2)NC(=O)[C@H](CC(=O)O)NC(=O)[C@@H](C)NC(=O)[C@H](CCCNC(=N)N)NC1=O [Cyclo-(Arg-DAla-Asp-Phe-Val)] (cyclo(R[dA]DFV))
IC50 [2]: > 240000 nM

CC(C)(C)[C@@H]1NC(=O)[C@@H](Cc2ccc(F)cc2)NC(=O)[C@H](CC(=O)O)NC(=O)CNC(=O)[C@H](CCCNC(=N)N)NC1=O [Cyclo-(Arg-Gly-Asp-DPhe(4-F)-Tle)]
IC50 (human placental αVβ3): 3 nM

C[C@H]1C(=O)N[C@@H](CCCNC(=N)N)C(=O)NCC(=O)N[C@@H](CC(=O)O)C(=O)N[C@H](Cc2ccccc2)C(=O)N1C [Cyclo-(Arg-Gly-Asp-DPhe-(NMe)Ala)]
IC50 (integrin αVβ3): 24 nM
